The target of data set [1] is T1, human DNA topoisomerase IIα (Homo sapiens, UniProt P11388).
T1 construct: purchased Inspiralis Ltd, Norwich, UK
As to the kind of experiment: Human topoisomerase IIα relaxation assay. Type of data set: biochemical. To be noted: agarose gel, densitometry; read-out: IC50 ± SD, relaxation activity of human DNA topoisomerase IIα.
Method: As relaxation of supercoiled DNA (scDNA) is one of numerous functions of topoisomerase IIα, so the appearance/disappearance of relaxed DNA bands during agarose gel electrophoresis can be used to identify compounds that inhibit the enzyme.
Briefly, the increased concentrations of the compounds were mixed with the reaction mixture, incubated according to the protocol and, after reaction termination, the samples were analysed by electrophoresis using 1% agarose gel containing 0.5 mg/mL of ethidium bromide in Tris-Acetate-EDTA (TAE) buffer. Visualisation of the bands was performed using an enhanced chemiluminescence system (Syngene G:BOX Chemi XT4, Cambridge, UK). For the quantitative determination of topoisomerase II inhibition, images were densitometrically scanned.
The inhibition of topoisomerase II was calculate from the equation: % Inhibition=Intensity of compound−treated DNA/Intensity of vehicle−treated control DNA×100

A further data set deals with A375 (melanoma cells). As to the kind of experiment: BrdU assay. Type of data set: cell-based, human. To be noted: for IC50: Homo sapiens, A-375, A375, BrdU, 24 h, read-out: IC50 ± SD, antiproliferative activity. As for the experimental part:
Since the inhibition of human DNA topoisomerase II should result in decreased proliferation of cancer cells, compounds 1-3 were tested using BrdU assay against a panel of cancer cell lines, including MCF-7 (estrogen-dependent human breast cancer cells), MDA-MB-231 (estrogen-independent human breast cancer cells), SCC-25 (squamous cell carcinoma of the tongue), FaDu (squamous cell carcinoma of the pharynx), A549 (human lung carcinoma), AGS (human gastric adenocarcinoma), LS-180, HT-29 (colon cancer cell lines), T98G (glioblastoma cells), and A375 (melanoma cells). Human normal skin fibroblasts (CRL-2072) were also used as a reference cell line. The BrdU assay allows quantification of cell proliferation since it measures incorporation of thymidine analogue (BrdU) during DNA replication. […] However, although the antiproliferative effect caused by 3 was mostly weaker (except for A549 and A375) than observed for 1, but the former compound was also characterised by lower toxicity against human normal cells. It results in selectivity index approaching 125 and 57, when it comes to lung cancer (A549) and melanoma cells (A375), respectively.
(§1) Cytotoxicity of the synthesised compounds were examined against a panel of the cancer cell lines, MCF-7 (estrogen-dependent human breast cancer cells), MDA-MB-231 (oestrogen-independent human breast cancer cells), SCC- 25 (squamous cell carcinoma of the tongue), FaDu (squamous cell carcinoma of the pharynx), A- 549 (human lung carcinoma), AGS (human gastric adenocarcinoma), LS-180, HT-29 (colon cancer cell lines), T98G (glioblastoma cells), A375 (melanoma cells). Human embryonic kidney (HEK-293) cells and human normal skin fibroblasts (CRL-2072) were used as reference cell lines. The investigated cell lines were obtained from American Type Culture Collection (ATCC; Manassas, VA, USA). A375, MCF-7, MDA-MB-231, T98G cells were cultured in Dulbecco’s Modified Eagle’s Medium (DMEM) (Sigma Aldrich, St. Louis, MO, USA) supplemented with 10% heat inactivated foetal bovine serum (FBS), penicillin (100 U/mL), and streptomycin (100 μg/mL). SCC-25 cells were cultured in 1:1 mixture of Dulbecco’s modified Eagle’s medium and Ham’s F12 Medium (Sigma Aldrich, St. Louis, MO, USA) supplemented with 400 ng/ml hydrocortisone, 10% FBS, penicillin (100 U/mL), and streptomycin (100 μg/mL). A549 and AGS cells were maintained in F-12K Medium (Sigma Aldrich, St. Louis, MO, USA). LS-180 and FaDu cells were cultured in Eagle’s Minimum Essential Medium. HT-29 cells were maintained in McCoy’s 5 A Medium (Sigma Aldrich, St. Louis, MO, USA) supplemented with 10%FBS, penicillin (100 U/mL), and streptomycin (100 μg/mL). All the cells were maintained at 37 °C in a humidified atmosphere of 5% CO2.
The BrdU assay was performed to determine the effect of synthesised compounds on the proliferation of cancer cells. BrdU assay indicates the rate of incorporation of 5′-bromo-2′-deoxy-uridine (BrdU) during DNA biosynthesis. In brief, cells were plated in 96-well plates (NUNC, Roskilde, Denmark) at the density of 3 × 10^4 cells/mL. […] Cell proliferation was examined after 24 h and 48 h of incubation according to the manufacturer’s protocol (Cell Proliferation ELISA BrdU, Roche Diagnostics GmbH, Penzberg,)Germany).
(In general: Dividing cells build labelled thymidine or BrdU into new DNA.)

The subject of data set [2] is A549 (human lung carcinoma). As to the kind of experiment: MTT assay. The settings on record: read-out: IC50, cytotoxicity. Type of data set: cell-based. As for the experimental part:
(§2) Therefore, the whole set of compounds were tested by using MTT assay in order to check their overall cytotoxic effect. The growth of cells was monitored after 24 and 48 h of incubation with the increased concentrations (1–100 µg/ml) of the thiosemicarbazide derivatives. […] This confirms that the compounds tested combine different mechanisms of anticancer activity, and DNA topoisomerase II inhibition is only one of them.
as §1
(§3) The synthesised compounds were dissolved in DMSO in order to obtain stock solutions. At the day of the experiment, the suspension of cells (1 × 10^5 cells/mL) in the respective medium was applied to a 96-well plate at 100 μL per well. […] The control cells were cultured only with a medium containing 2% FBS. Cytotoxicity of DMSO was also checked at concentrations present in respective dilutions of stock solution. After 24 h (or 48 h) of incubation, 15 μL of MTT working solution (5 mg/mL in PBS) was added to each well. The plate was incubated for 3 h. Subsequently, 100 μL of 10% SDS solution was added to each well. Cells were incubated overnight at 37 °C to dissolve the precipitated formazan crystals. The concentration of the dissolved formazan was evaluated by measuring the absorbance at λ = 570 nm, using a microplate reader (Epoch, BioTek Instruments, Inc., Winooski, VT, USA). At least two independent experiments were performed in triplicates. The results of the MTT assay were expressed as mean ± SD. […] IC50 values of the investigated derivatives and standards were calculated using the IC50 calculator.[23]
Background: Formazan colour is commonly taken as a measure of viable cells.

The subject of data set [3] is AGS (human gastric adenocarcinoma). As to the kind of experiment: MTT assay. The settings on record: read-out: IC50, cytotoxicity. Type of data set: cell-based. As for the experimental part: as §2, §1, §3
In data set [4] the test system is HT-29 (colon cancer cell line). As to the kind of experiment: MTT assay. Type of data set: cell-based. The settings on record: Homo sapiens, HT-29, MTT, read-out: IC50, cytotoxicity. As to the method:
as §2, §1, §3

For data set [5], the system named is LS180 (colon cancer cell line). As to the kind of experiment: MTT assay. Type of data set: cell-based. To be noted: Homo sapiens, read-out: IC50, cytotoxicity. As for the experimental part:
as §2, §1, §3

The test system of data set [6] is MCF-7 (estrogen-dependent human breast cancer cells). As to the kind of experiment: MTT assay. Type of data set: cell-based. To be noted: MCF7, MCF-7, MTT, read-out: IC50, cytotoxicity. As to the method: as §2, §1, §3
Data set [7] concerns SCC-25 (squamous cell carcinoma of the tongue). As to the kind of experiment: MTT assay. Type of data set: cell-based. The settings on record: Homo sapiens, SCC-25, MTT, read-out: IC50, cytotoxicity. As to the method: as §2, §1, §3
For data set [8], the target named is T2, indoleamine-2,3-dioxygenase 1 (IDO 1) (Homo sapiens, UniProt P14902).
T2 construct: purchased BPS Bioscience, Inc. (San Diego, CA, USA)
T2 sequence (P14902 whole entry): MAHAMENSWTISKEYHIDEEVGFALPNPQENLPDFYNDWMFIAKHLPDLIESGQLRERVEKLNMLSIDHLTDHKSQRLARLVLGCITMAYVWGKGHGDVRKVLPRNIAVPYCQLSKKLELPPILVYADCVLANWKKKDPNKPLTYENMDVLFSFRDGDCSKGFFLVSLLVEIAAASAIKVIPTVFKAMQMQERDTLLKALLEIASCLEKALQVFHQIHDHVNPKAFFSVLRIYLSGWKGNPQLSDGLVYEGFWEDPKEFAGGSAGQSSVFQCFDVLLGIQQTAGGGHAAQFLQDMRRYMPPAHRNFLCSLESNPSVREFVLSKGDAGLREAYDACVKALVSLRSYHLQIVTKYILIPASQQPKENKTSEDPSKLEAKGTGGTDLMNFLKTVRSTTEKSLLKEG
As to the kind of experiment: Universal IDO1/IDO2/TDO Inhibitor Screening Assay Kit. Type of data set: biochemical. To be noted: fixed dose of 50 µg/ml; read-out: IDO 1 inhibition (%) ± SD.
Method: Inhibitory effects of the investigated compounds were determined using Universal IDO1/IDO2/TDO Inhibitor Screening Assay Kit from BPS Bioscience, Inc. (San Diego, CA, USA). This colorimetric assay is based on the measurement of the ability of IDO1, IDO2 and TDO to convert L-tryptophan into N-formylkynurenine (NFK). The experiments were performed according to the manufacturer’s guidelines. The final concentration of the compounds in the reaction mixture was 50 µg/mL. The amount of NFK was measured spectrophotometrically at 320 nm using Epoch BioTek microplate reader (BioTek Instruments, Inc., Winooski, VT, USA). The samples were run in triplicate and the results were expressed as mean ± SD.

Values after ≈ are worked out from the molar mass of the structure shown. Like-named read-outs stand apart in the source and are kept apart here.

T1 sequence (P11388 whole entry): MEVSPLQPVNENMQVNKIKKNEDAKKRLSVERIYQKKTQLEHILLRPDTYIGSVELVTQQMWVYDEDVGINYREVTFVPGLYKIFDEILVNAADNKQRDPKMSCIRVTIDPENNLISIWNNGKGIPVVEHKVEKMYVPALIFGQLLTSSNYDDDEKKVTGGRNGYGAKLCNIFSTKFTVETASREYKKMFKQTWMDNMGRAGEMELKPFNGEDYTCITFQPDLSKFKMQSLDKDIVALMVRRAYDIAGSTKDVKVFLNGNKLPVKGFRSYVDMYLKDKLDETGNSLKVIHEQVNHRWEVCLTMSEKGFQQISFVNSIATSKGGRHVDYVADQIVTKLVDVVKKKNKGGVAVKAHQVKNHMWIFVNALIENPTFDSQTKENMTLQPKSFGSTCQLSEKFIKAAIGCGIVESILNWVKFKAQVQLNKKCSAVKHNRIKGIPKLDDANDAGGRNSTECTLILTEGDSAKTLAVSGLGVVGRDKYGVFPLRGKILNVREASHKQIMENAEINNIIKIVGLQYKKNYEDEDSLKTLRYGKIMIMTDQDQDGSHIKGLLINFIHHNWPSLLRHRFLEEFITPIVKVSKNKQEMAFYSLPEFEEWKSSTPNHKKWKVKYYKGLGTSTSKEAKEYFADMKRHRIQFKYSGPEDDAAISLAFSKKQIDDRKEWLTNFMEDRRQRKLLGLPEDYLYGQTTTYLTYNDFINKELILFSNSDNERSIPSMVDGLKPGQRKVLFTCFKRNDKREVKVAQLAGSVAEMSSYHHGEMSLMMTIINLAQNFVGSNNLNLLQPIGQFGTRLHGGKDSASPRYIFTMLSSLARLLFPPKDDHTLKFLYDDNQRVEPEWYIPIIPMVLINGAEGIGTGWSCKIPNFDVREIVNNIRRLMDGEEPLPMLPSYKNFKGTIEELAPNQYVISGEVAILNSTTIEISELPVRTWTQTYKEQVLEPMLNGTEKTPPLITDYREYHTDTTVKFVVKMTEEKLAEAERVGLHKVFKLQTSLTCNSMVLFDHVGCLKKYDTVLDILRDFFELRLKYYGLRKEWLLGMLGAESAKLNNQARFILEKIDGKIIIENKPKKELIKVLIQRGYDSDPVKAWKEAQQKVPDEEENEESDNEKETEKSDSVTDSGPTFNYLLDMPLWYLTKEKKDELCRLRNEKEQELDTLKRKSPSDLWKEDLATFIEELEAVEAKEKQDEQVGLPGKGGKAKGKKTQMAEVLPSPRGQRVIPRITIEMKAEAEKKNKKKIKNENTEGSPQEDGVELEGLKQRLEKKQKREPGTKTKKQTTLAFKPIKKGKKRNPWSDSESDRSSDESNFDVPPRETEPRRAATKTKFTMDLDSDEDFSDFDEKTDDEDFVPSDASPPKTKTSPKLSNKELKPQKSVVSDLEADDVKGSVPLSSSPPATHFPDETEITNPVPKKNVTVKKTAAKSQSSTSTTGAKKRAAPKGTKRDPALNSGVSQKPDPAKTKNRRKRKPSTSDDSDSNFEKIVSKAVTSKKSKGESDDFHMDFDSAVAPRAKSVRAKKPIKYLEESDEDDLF

`O=C(NNC(=S)Nc1ccc(N=Nc2ccccc2)cc1)c1ccccc1[N+](=O)[O-]` [Compound 3, 4-(4-Phenylazophenyl)-1-(2-nitrobenzoyl)thiosemicarbazide] yielded a melting point of 168 to 170 °C. Besides, the concentration for half-maximal inhibition (IC50) in data set [1] was 76.8 ± 4.85 µM. The “selectivity index, A375 vs. human normal skin fibroblasts” value in the data set on A375 (melanoma cells) (BrdU assay, melanoma cells (A375)) is reported as about 57. For the same molecule, in the data set with A375 (melanoma cells), the half-inhibitory concentration (IC50) came out at 0.56 ± 0.03 µg/mL (≈ 1.33 µM). The IC50 in [2] (24h) worked out at 5.37 µg/mL (≈ 12.8 µM). In addition, the IC50 in data set [2] (48h) worked out at 5.13 µg/mL (≈ 12.2 µM). Further, in [3] (24h), the IC50 is 5.54 µg/mL (≈ 13.2 µM). The IC50 in data set [3] (48 h) came to 4.31 µg/mL (≈ 10.3 µM). Besides, in data set [4] (24h), the IC50 was found to be 7.37 µg/mL (≈ 17.5 µM). Also, the IC50 in [4] (48 h) is 3.77 µg/mL (≈ 8.97 µM). Besides, the IC50 in [5] (24h) was found to be 3.12 µg/mL (≈ 7.42 µM). Besides, in data set [5] (48 h), the IC50 was determined as 2.7 µg/mL (≈ 6.42 µM). The concentration for half-maximal inhibition (IC50) in data set [6] (24h) is 7.67 µg/mL (≈ 18.2 µM). Besides, in [6] (48h), the IC50 worked out at 5.48 µg/mL (≈ 13 µM). The half-maximal inhibitory concentration (IC50) in [7] (24h) worked out at 4.76 µg/mL (≈ 11.3 µM). Besides, in [7] (48 h), the IC50 was 3.87 µg/mL (≈ 9.2 µM). Also, the inhibition at 50 µg/mL in data set [8] turned out to be 21.4 ± 1.05%.

Regarding `COc1cc([C@@H]2c3cc4c(cc3[C@@H](O[C@@H]3O[C@@H]5CO[C@@H](C)O[C@H]5[C@H](O)[C@H]3O)[C@H]3COC(=O)[C@H]23)OCO4)cc(OC)c1O` [Etoposide, etoposide, reference compound], the half-inhibitory concentration (IC50) with A375 (melanoma cells) was 9.18 ± 0.15 µg/mL (≈ 15.6 µM); in [2] (24h), over 100 µg/mL; in [2] (48h), 15.6 µg/mL (≈ 26.5 µM); in data set [3] (24h), 50.8 µg/mL (≈ 86.3 µM); in [3] (48 h), 29.8 µg/mL (≈ 50.6 µM); in [4] (24h), 94.5 µg/mL (≈ 161 µM). The IC50 in data set [4] (48 h) was 11.3 µg/mL (≈ 19.2 µM); in data set [5] (24h), over 100 µg/mL; in data set [5] (48 h), 11.7 µg/mL (≈ 19.9 µM); in data set [6] (24h), over 100 µg/mL; in data set [6] (48h) it was 6.15 µg/mL (≈ 10.4 µM); in data set [7] (24h) it was 59.1 µg/mL (≈ 100 µM). In addition, the IC50 in data set [7] (48 h) was determined as 23.7 µg/mL (≈ 40.3 µM).

Consider `O=C(Cc1cccc2ccccc12)NNC(=S)Nc1ccc(N=Nc2ccccc2)cc1` [Compound 2, 4-(4-Phenylazophenyl)-1-[(naphth-1-yl)acetyl]thiosemicarbazide], for which the melting point was 178 to 180 °C. Also, in data set [1], the IC50 stood at 43.1 ± 2.27 µM. In addition, in the data set with A375 (melanoma cells), the IC50 worked out at 0.85 ± 0.04 µg/mL (≈ 1.93 µM). Besides, in data set [2] (24h), the concentration for half-maximal inhibition (IC50) is 5.84 µg/mL (≈ 13.3 µM). For the same molecule, the IC50 in [2] (48h) turned out to be 5.78 µg/mL (≈ 13.1 µM). For the same molecule, the IC50 in data set [3] (24h) worked out at 5.32 µg/mL (≈ 12.1 µM). Moreover, the IC50 in data set [3] (48 h) turned out to be 2.96 µg/mL (≈ 6.73 µM). The half-inhibitory concentration (IC50) in data set [4] (24h) came to 8.96 µg/mL (≈ 20.4 µM). In [4] (48 h), the concentration for half-maximal inhibition (IC50) was found to be 5.33 µg/mL (≈ 12.1 µM). In data set [5] (24h), the 50% inhibitory concentration (IC50) stood at 2.87 µg/mL (≈ 6.53 µM). Moreover, the IC50 in data set [5] (48 h) was 2.24 µg/mL (≈ 5.1 µM). Besides, in data set [6] (24h), the IC50 came out at 9.18 µg/mL (≈ 20.9 µM). In addition, the IC50 in data set [6] (48h) is 8.85 µg/mL (≈ 20.1 µM). Moreover, the IC50 in [7] (24h) came out at 4.73 µg/mL (≈ 10.8 µM). Moreover, the half-inhibitory concentration (IC50) in data set [7] (48 h) came to 3.12 µg/mL (≈ 7.1 µM). Moreover, in data set [8], the inhibition at 50 µg/mL was 41.4 ± 2.47%.

As to `CC(C)c1cccc(C(C)C)c1NC(=S)NNC(=O)Cc1cccc2ccccc12` [Compound 1, 4-(2,6-Diisopropylphenyl)-1-[(naphth-1-yl)acetyl]thiosemicarbazide], the melting point fell in the range of 140 to 142 °C. Further, the IC50 in [1] is 71 ± 4.81 µM. The IC50 in the data set on A375 (melanoma cells) was 0.96 ± 0.03 µg/mL (≈ 2.29 µM). For the same molecule, the IC50 in data set [2] (24h) is 3.87 µg/mL (≈ 9.22 µM). Further, the IC50 in data set [2] (48h) worked out at 2.27 µg/mL (≈ 5.41 µM). In addition, in [3] (24h), the IC50 is 5.92 µg/mL (≈ 14.1 µM). The half-inhibitory concentration (IC50) in [3] (48 h) was determined as 2.69 µg/mL (≈ 6.41 µM). Also, the IC50 in [4] (24h) came out at 8.96 µg/mL (≈ 21.4 µM). Also, the IC50 in [4] (48 h) came out at 5.33 µg/mL (≈ 12.7 µM). In addition, the half-inhibitory concentration (IC50) in data set [5] (24h) turned out to be 4.57 µg/mL (≈ 10.9 µM). In data set [5] (48 h), the IC50 came out at 2.54 µg/mL (≈ 6.05 µM). In data set [6] (24h), the concentration for half-maximal inhibition (IC50) worked out at 9.82 µg/mL (≈ 23.4 µM). Moreover, the half-maximal inhibitory concentration (IC50) in data set [6] (48h) came out at 8.45 µg/mL (≈ 20.1 µM). In data set [7] (24h), the IC50 worked out at 7.06 µg/mL (≈ 16.8 µM). Further, the 50% inhibitory concentration (IC50) in data set [7] (48 h) amounted to 5.22 µg/mL (≈ 12.4 µM). Moreover, the inhibition at 50 µg/mL in data set [8] was 91.4 ± 1.82%.

The IC50 is the concentration needed to halve the response being measured. The inhibition is the share of the control response that was lost under treatment. In general, melting point refers to the temperature of the solid-liquid transition.

The record behind these values is publication PMC9648375, “Identification of the first-in-class dual inhibitors of human DNA topoisomerase IIα and indoleamine-2,3-dioxygenase 1 (IDO 1) with strong anticancer properties” (Journal of Enzyme Inhibition and Medicinal Chemistry, 2022).
